{
  "source": "paper PMC6687188",
  "about": "“Novel lactate dehydrogenase inhibitors with in vivo efficacy against Cryptosporidium parvum” (PLoS Pathogens, 2019)",
  "data": [
    {"target": "recombinant CpLDH protein (Cryptosporidium parvum, UniProt Q9GT92, F198L/K295E/R251K)", "units": {"MEAN CpLDH INHIBITION (%)": "%"}, "values": [
      {"smiles": "CC(=O)C1=C(O)C2(O)C(=O)c3c(c(C)c4ccc(C)c(O)c4c3O)CC2C(N)C1=O.CCCCCCCCCCCCOS(=O)(=O)O", "note": "(stereo not shown) [NSC73495]", "MEAN CpLDH INHIBITION (%)": -99.50},
      {"smiles": "COc1cc2c(c(OC)c1OC)-c1ccc(OC)c(=O)cc1[C@@H](NC(=O)c1ccccc1)CC2", "note": "[NSC33410]", "MEAN CpLDH INHIBITION (%)": -43.24},
      {"smiles": "CC(=O)/C(C)=N/NC(=O)c1ccccc1O", "note": "[NSC635441]", "MEAN CpLDH INHIBITION (%)": -52.88},
      {"smiles": "O=C(CCc1ccccc1)On1nnc2ccccc2c1=O", "note": "[NSC630374]", "MEAN CpLDH INHIBITION (%)": -20.24},
      {"smiles": "CC(=O)NC1C(OCc2ccccc2)OC(CO)C(O)C1OC(C)C(=O)NC(C(=O)NC(CCC(=O)NCCCCNc1c2ccccc2nc2cccc([N+](=O)[O-])c12)C(N)=O)C(C)C", "note": "(stereo not shown) [NSC697468]", "MEAN CpLDH INHIBITION (%)": -5.22},
      {"smiles": "OCC1OC(n2cnc3c(=S)nc[nH]c32)C(O)C1O", "note": "(stereo not shown) [NSC406021]", "MEAN CpLDH INHIBITION (%)": -17.89},
      {"smiles": "O=C(O)c1cc(CCc2cc(O)ccc2O)ccc1O", "note": "[NSC655255]", "MEAN CpLDH INHIBITION (%)": -35.82},
      {"smiles": "COc1cc(C[C@H]2c3cc(OC)c(OC)cc3CCN2C)c(Oc2cc3c(cc2OC)-c2c(OC)c(OC)cc4c2[C@H](C3)N(C)CC4)cc1OC", "note": "[NSC68075]", "MEAN CpLDH INHIBITION (%)": -148.49},
      {"smiles": "CC(C)(Br)C(=O)C(Br)Br", "note": "[NSC1027]", "MEAN CpLDH INHIBITION (%)": -2.97},
      {"smiles": "COc1ccc2c(c1)CCc1c-2n[nH]c1-c1[nH]nc2c1CCc1cc(OC)ccc1-2", "note": "[NSC371846]", "MEAN CpLDH INHIBITION (%)": -16.04},
      {"smiles": "CCOC(=O)/C(=C/c1ccc(N(C)C)cc1)N(CC)CC", "note": "[NSC643774]", "MEAN CpLDH INHIBITION (%)": -24.42},
      {"smiles": "CC(C)C[C@H]1C(=O)N2CCC[C@H]2[C@]2(O)O[C@](NC(=O)[C@@H]3C=C4c5cccc6[nH]c(Br)c(c56)C[C@H]4N(C)C3)(C(C)C)C(=O)N12.CS(=O)(=O)O", "note": "[NSC169774]", "MEAN CpLDH INHIBITION (%)": -107.83},
      {"smiles": "CCOC(=O)C(CC(C)C)NC(=O)C(Cc1ccc(N(CCCl)CCCl)cc1)NC(C)=O", "note": "(stereo not shown) [NSC167780]", "MEAN CpLDH INHIBITION (%)": -51.52},
      {"smiles": "NC(=S)NN=Cc1ncccc1O", "note": "[NSC95678]", "MEAN CpLDH INHIBITION (%)": -37.43},
      {"smiles": "Cc1cc(N(CCOS(C)(=O)=O)CCOS(C)(=O)=O)ccc1C=Nc1ccc(-c2csc(-c3ccccc3)n2)c(Cl)c1", "note": "[NSC281613]", "MEAN CpLDH INHIBITION (%)": -15.80},
      {"smiles": "COc1ccc(OC)c2nc3c(C(=O)NCCN(C)C)cccc3nc12.Cl", "note": "[NSC678917]", "MEAN CpLDH INHIBITION (%)": -41.85},
      {"smiles": "Cc1nc(Cl)c(C)c(Cl)n1", "note": "[NSC40212]", "MEAN CpLDH INHIBITION (%)": -35.86},
      {"smiles": "COc1ccc(-c2cc(=O)c3c(O)cc(O)cc3o2)cc1OC", "note": "[NSC128305]", "MEAN CpLDH INHIBITION (%)": -10.13},
      {"smiles": "N#CC(=S)Nc1ccc(F)cc1", "note": "[NSC369317]", "MEAN CpLDH INHIBITION (%)": -8.49},
      {"smiles": "C/C(NNC(=O)c1ccccc1O)=C1\\C=Nc2ccccc2S1", "note": "[NSC635121]", "MEAN CpLDH INHIBITION (%)": 0.03},
      {"smiles": "O=C1Nc2ccc(Br)cc2/C1=C/C(=O)c1ccccc1", "note": "[NSC294961]", "MEAN CpLDH INHIBITION (%)": -25.63},
      {"smiles": "Nc1nc(=S)c2ncn(C3CC(O)C(CO)O3)c2[nH]1", "note": "(stereo not shown) [NSC71851]", "MEAN CpLDH INHIBITION (%)": -30.23},
      {"smiles": "Nc1ccccc1C(=O)NC(=O)Nc1ccc(Oc2ncc(Br)cn2)c(Cl)c1", "note": "[NSC639828]", "MEAN CpLDH INHIBITION (%)": -42.32},
      {"smiles": "CN(C)CCOC1(Cc2ccc(Cl)cc2Cl)CCC(C(C)(C)C)CC1.Cl", "note": "(stereo not shown) [NSC670224]", "MEAN CpLDH INHIBITION (%)": -73.95},
      {"smiles": "CC(C)[Si]1(C(C)C)OCC2OC(n3cnc4c(N)ncnc43)C(N)C2O[Si](C(C)C)(C(C)C)O1", "note": "(stereo not shown) [NSC687330]", "MEAN CpLDH INHIBITION (%)": -17.98},
      {"smiles": "O=[N+]([O-])c1cccc2nc3ccccc3c(NCCCNc3c4ccccc4nc4cccc([N+](=O)[O-])c34)c12", "note": "[NSC690634]", "MEAN CpLDH INHIBITION (%)": -61.23},
      {"smiles": "O=c1c(Br)c(-c2ccccc2)[nH]c2ccccc12", "note": "[NSC12825]", "MEAN CpLDH INHIBITION (%)": -13.98},
      {"smiles": "CCCCCCCCCc1c(Cl)nc(Cl)nc1Cl", "note": "[NSC92510]", "MEAN CpLDH INHIBITION (%)": -23.70},
      {"smiles": "C/C(=N\\N=C(/[Se])N1CC2CCC(CC2)C1)c1ccccn1", "note": "[NSC323241]", "MEAN CpLDH INHIBITION (%)": -23.75},
      {"smiles": "CN(C)CCCN1c2ccc3ccccc3c2Sc2cccc(Cl)c21", "note": "[NSC24113]", "MEAN CpLDH INHIBITION (%)": -11.52},
      {"smiles": "Cc1ccc(NC(=O)c2cccc([N+](=O)[O-])c2O)c([N+](=O)[O-])c1", "note": "[NSC82025]", "MEAN CpLDH INHIBITION (%)": -16.46}
    ]}
  ]
}
